Experimental data taken from the PolyMetriX glass transition set.

SMILES | glass transition temperature [°C]
*C(=O)N1C(=S)N(C(=O)c2ccc3c(c2)C(=O)N(c2ccc(Oc4ccc(N5C(=O)c6ccc(*)cc6C5=O)cc4)cc2)C3=O)C(C)=C(C(=O)OCC)C1c1ccccc1 (repeat unit) | 155.00
*C(=O)Oc1c(C)cc(C(C)(C)c2cc(C)c(OC(=O)c3ccc4c(c3)C(=O)N(c3ccc(-c5ccc(N6C(=O)c7ccc(*)cc7C6=O)cc5C)c(C)c3)C4=O)c(C)c2)cc1C (repeat unit) | 182.00
*C(=O)Oc1ccc(C2(c3ccc(OC(=O)c4ccc5c(c4)C(=O)N(c4ccc(-c6ccc(N7C(=O)c8ccc(*)cc8C7=O)cc6C)c(C)c4)C5=O)cc3)C3CC4CC(C3)CC2C4)cc1 (repeat unit) | 222.00
*C(=O)Oc1ccc(C2(c3ccc(OC(=O)c4ccc5c(c4)C(=O)N(c4ccc(-c6ccc(N7C(=O)c8ccc(*)cc8C7=O)cc6C)c(C)c4)C5=O)cc3)CCC(C(C)(C)C)CC2)cc1 (repeat unit) | 217.00
*C(=O)Oc1ccc(C2(c3ccc(OC(=O)c4ccc5c(c4)C(=O)N(c4ccc(-c6ccc(N7C(=O)c8ccc(*)cc8C7=O)cc6C)c(C)c4)C5=O)cc3)CCCCCCCCCCC2)cc1 (repeat unit) | 204.00
*C(=O)c1ccc(Oc2ccc(-c3ccc(Oc4ccc(C(=O)c5ccc6c(c5)C(=O)N(c5ccc(Oc7ccc(N8C(=O)c9ccc(*)cc9C8=O)cc7)cc5)C6=O)cc4)cc3)cc2)cc1 (repeat unit) | 233.00
*C(=O)c1ccc(Oc2ccc(S(=O)(=O)c3ccc(Oc4ccc(C(=O)c5ccc6c(c5)C(=O)N(c5ccc(Oc7ccc(N8C(=O)c9ccc(*)cc9C8=O)cc7)cc5)C6=O)cc4)cc3)cc2)cc1 (repeat unit) | 241.00
*CCCCCCCN1C(=O)c2ccc(-c3ccc(-c4ccc5c(c4)C(=O)N(*)C5=O)cc3)cc2C1=O (repeat unit) | 135.00
*c1cc2c(cc1C)-c1cc(C)c(N3C(=O)c4ccc(-c5ccc6c(c5)C(=O)N(*)C6=O)cc4C3=O)cc1S2(=O)=O (repeat unit) | 490.00
*c1ccc(-c2c(-c3ccc(-c4ccccc4)cc3)cc(-c3ccc(OCCCCCCOc4ccc(-c5cc(-c6ccc(-c7ccccc7)cc6)c(-c6ccc(-n7c(=O)c8cc9c(=O)n(*)c(=O)c9cc8c7=O)cc6)c(-c6ccc(-c7ccccc7)cc6)c5)cc4)cc3)cc2-c2ccc(-c3ccccc3)cc2)cc1 (repeat unit) | 128.50
*c1ccc(-c2cc(-c3ccccc3)c3cc(-c4ccc5nc(*)cc(-c6ccccc6)c5c4)ccc3n2)cc1 (repeat unit) | 395.00
*c1ccc(-c2cc(CCCCCCCC)c(-c3ccc(-c4ccc(-c5sc(-c6ccc([Si](*)(C)C)s6)cc5CCCCCCCC)s4)s3)s2)s1 (repeat unit) | 31.00
*c1ccc(-c2cc(CCCCCCCC)c(-c3ccc(-c4ccc(-c5sc(-c6ccc([Si](*)(CCCC)CCCC)s6)cc5CCCCCCCC)s4)s3)s2)s1 (repeat unit) | -1.00
*c1ccc(-c2cc(CCCCCCCC)c(-c3ccc(-c4sc(*)cc4CCCCCCCC)cc3)s2)cn1 (repeat unit) | 16.20
*c1ccc(-c2cc(CCCCCCOC(=O)COc3ccccc3)c(*)s2)s1 (repeat unit) | 79.00
*c1ccc(-c2ccc(-c3ccc(-c4cc(-c5ccccc5)c5cc(Oc6ccc7nc(*)cc(-c8ccccc8)c7c6)ccc5n4)cc3)cc2)cc1 (repeat unit) | 300.00
*c1ccc(-c2ccc(-c3ccc(-c4ccc(-c5cc(-c6ccccc6)c6cc(Oc7ccc8nc(*)cc(-c9ccccc9)c8c7)ccc6n5)cc4)cc3)cc2)cc1 (repeat unit) | 310.00
*c1ccc(-c2ccc(-c3ccc(-c4ccc(-c5ccc6c(c5)C(=O)N(c5ccc(Oc7ccc(N8C(=O)c9ccc(*)cc9C8=O)cc7)cc5)C6=O)cc4)cc3)cc2)cc1 (repeat unit) | 244.00
*c1ccc(-c2ccc(-c3ccc(-n4c(=O)c5cc6c(=O)n(*)c(=O)c6c(C(F)(F)F)c5c4=O)cc3)cc2)cc1 (repeat unit) | 364.00

SMILES | glass transition temperature [°C]
*c1ccc(-c2ccc(-c3ccc([Si](*)(C)C)s3)s2)s1 (repeat unit) | 45.00
*c1ccc(-c2ccc(-c3ccc([Si](CCCC)(CCCC)[Si](*)(CCCC)CCCC)s3)s2)s1 (repeat unit) | -5.00
*c1ccc(-c2ccc(-c3cnc4cc(Oc5ccc6nc(*)cnc6c5)ccc4n3)cc2)cc1 (repeat unit) | 390.00
*c1ccc(-c2ccc(-c3nc4ccccc4c(-c4ccc(Oc5ccc(-c6c(-c7ccccc7)c(*)nc7ccccc67)cc5)cc4)c3-c3ccccc3)cc2)cc1 (repeat unit) | 345.00
*c1ccc(-c2ccc(-n3c(=O)c4c(C(F)(F)F)c5c(=O)n(*)c(=O)c5c(C(F)(F)F)c4c3=O)cc2C(F)(F)F)c(C(F)(F)F)c1 (repeat unit) | 304.00
*c1ccc(-c2ccc(-n3c(=O)c4cc5c(=O)n(*)c(=O)c5cc4c3=O)cc2F)c(F)c1 (repeat unit) | 398.00
*c1ccc(-c2ccc(N(*)c3ccc(C)cc3)cc2)cc1 (repeat unit) | 85.00
*c1ccc(-c2ccc(N3C(=O)c4ccc(Oc5ccc6c(c5)C(=O)N(*)C6=O)cc4C3=O)cc2C)c(C)c1 (repeat unit) | 325.00
*c1ccc(-c2ccc([Si](*)(C)C)s2)s1 (repeat unit) | 45.00
*c1ccc(-c2ccc([Si](CCCC)(CCCC)[Si](*)(CCCC)CCCC)s2)s1 (repeat unit) | -20.00
*c1ccc(-c2ccc3c(c2)C(CCCCCC)(CCCCCC)c2cc(*)ccc2-3)cc1 (repeat unit) | 106.20
*c1ccc(-c2ccc3c(c2)C(CCCCCCBr)(CCCCCCBr)c2cc(*)ccc2-3)cc1 (repeat unit) | 122.00
*c1ccc(-c2cnc3cc(-c4ccc5nc(*)cnc5c4)ccc3n2)cc1 (repeat unit) | 350.00
*c1ccc(-c2cnc3cc(Oc4ccc5nc(*)cnc5c4)ccc3n2)cc1 (repeat unit) | 306.00
*c1ccc(-c2cnc3ccc(-c4ccc5nc(*)cnc5c4)cc3n2)cc1 (repeat unit) | 376.00
*c1ccc(-c2cnc3ccc(-c4ccc5ncc(*)nc5c4)cc3n2)cc1 (repeat unit) | 376.00
*c1ccc(-c2cnc3ccc(Oc4ccc5ncc(*)nc5c4)cc3n2)cc1 (repeat unit) | 306.00
*c1ccc(-c2nc3cc(-c4ccc5nc(-c6ccccc6)c(-c6ccc(-n7c(=O)c8cc9c(=O)n(*)c(=O)c9cc8c7=O)cc6)nc5c4)ccc3nc2-c2ccccc2)cc1 (repeat unit) | 217.00
*c1ccc(-c2nc3cc(-c4ccc5nc(-c6ccccc6)c(-c6ccc(N7C(=O)C8OC9C(=O)N(*)C(=O)C9C8C7=O)cc6)nc5c4)ccc3nc2-c2ccccc2)cc1 (repeat unit) | 230.00

SMILES | glass transition temperature [°C]
*c1ccc(-c2nc3cc(-c4ccc5oc(*)nc5c4)ccc3o2)cc1 (repeat unit) | 430.00
*c1ccc(-c2nc3cc(Oc4ccc5nc(-c6ccccc6)c(-c6ccc(-n7c(=O)c8cc9c(=O)n(*)c(=O)c9cc8c7=O)cc6)nc5c4)ccc3nc2-c2ccccc2)cc1 (repeat unit) | 274.00
*c1ccc(-c2nc3cc4nc(-c5ccccc5)c(*)nc4cc3nc2-c2ccccc2)cc1 (repeat unit) | 395.00
*c1ccc(-c2nc3ccccc3o2)c(*)c1 (repeat unit) | 229.00
*c1ccc(-c2nnc(*)o2)c(OCCCCC)c1 (repeat unit) | 205.00
*c1ccc(-c2sc(-c3cc(CCCC)c(*)s3)cc2CCCC)cc1 (repeat unit) | 122.30
*c1ccc(-c2sc(-c3cc(CCCCCCCCCCCC)c(*)s3)cc2CCCCCCCCCCCC)cc1 (repeat unit) | 59.60
*c1ccc(-c2sc(-c3cc(SCCCCCCCCCCCC)c(*)s3)cc2SCCCCCCCCCCCC)cc1 (repeat unit) | 65.40
*c1ccc(-c2sc(-c3ccc(-c4cc(CCCCCCCC)c(*)s4)cc3)cc2CCCCCCCC)cc1 (repeat unit) | -4.00
*c1ccc(-c2sc(-c3ccc(-c4cc(CCCCCCCCCCCC)c(*)s4)cc3)cc2CCCCCCCCCCCC)cc1 (repeat unit) | -19.20
*c1ccc(-n2ccc(-c3ccc(-c4ccn(*)n4)cc3)n2)cc1 (repeat unit) | 75.00
*c1ccc(C(c2ccc(-c3nc4ccc(-c5ccc6nc(*)oc6c5)cc4o3)cc2)(C(F)(F)F)C(F)(F)F)cc1 (repeat unit) | 345.00
*c1ccc(C(c2ccc(N3C(=O)c4cc(-c5ccc([Si](C)(C)C)cc5)c(-c5cc6c(cc5-c5ccc([Si](C)(C)C)cc5)C(=O)N(*)C6=O)cc4C3=O)cc2)(C(F)(F)F)C(F)(F)F)cc1 (repeat unit) | 365.00
*c1ccc(C2(c3ccc(-c4cc(-c5ccccc5)c5cc(-c6ccc7nc(*)cc(-c8ccccc8)c7c6)ccc5n4)cc3)c3ccccc3C(=O)c3ccccc32)cc1 (repeat unit) | 417.00
*c1ccc(C2(c3ccc(-c4nnc(*)o4)cc3)OC(=O)c3ccccc32)cc1 (repeat unit) | 380.00
*c1ccc(Cc2ccc(N3C(=O)c4ccc(-c5ccc(-c6ccc(-c7ccc(-c8ccc(-c9ccc%10c(c9)C(=O)N(*)C%10=O)cc8)cc7)cc6)cc5)cc4C3=O)cc2)cc1 (repeat unit) | 244.00
*c1ccc(Oc2ccc(N3C(=O)c4cc(-c5ccc([Si](C)(C)C)cc5)c(-c5cc6c(cc5-c5ccc([Si](C)(C)C)cc5)C(=O)N(*)C6=O)cc4C3=O)cc2)cc1 (repeat unit) | 348.00
*c1ccc([Si](c2ccccc2)(c2ccccc2)c2ccc(-c3nnc(-c4ccc(-c5nnc(*)o5)c5ccccc45)o3)cc2)cc1 (repeat unit) | 273.00
*c1ccc2oc(-c3ccc(C(c4ccc(-c5nc6cc(C(*)(C(F)(F)F)C(F)(F)F)ccc6o5)cc4)(C(F)(F)F)C(F)(F)F)cc3)nc2c1 (repeat unit) | 336.00
